The values that follow come from patent publication US12091385B2, “Pyridinylcyanoguanidine derivative and use thereof” (Rushi Biotech (Hangzhou) Co., Ltd, priority 2021, dated 2024).

By IC50 is commonly meant the concentration at which inhibition is half-maximal.

Holding throughout (format): cell-based
For test [1], the system named is Human pancreatic cancer cell CFPAC-1. Kind of test: CCK-8 cell proliferation assay, CFPAC-1. To be noted: CFPAC-1 cells, 72 hrs with drug, CCK-8, OD 450 nm. How it is done: (§1) The effect of samples on the proliferation of human tumor cells in vitro was determined by CCK-8 cell proliferation assay.
(§2) The cells were assayed through a method including the following steps: • 1) The cells were digested, counted, and prepared into a cell suspension in a corresponding culture medium (Table 1) (5×10^4 cells/ml for CFPAC-1 and RPMI 8226, and 3.5×10^4 cells/ml for rest cells). The cell suspension was added to each well of a 96-well plate in 100 μl/well. • 2) Then the 96-well plate was incubated for 24 hrs in an incubator at 37° C. and 5% CO2. • 3) The drug was diluted with the culture medium to the required working concentration. 100 μl of the corresponding drug containing medium was added to each well.
(Formazan colour is commonly taken as a measure of viable cells.)

For test [2], the system named is Human hepatoma cell HepG2. Kind of test: CCK-8 cell proliferation assay, HepG2. To be noted: HepG2 cells, 72 hrs with drug, CCK-8, OD 450 nm. On the procedure: as §1, §2
In test [3] the test system is Human lung adenocarcinoma cell A549. Kind of test: CCK-8 cell proliferation assay, A549. To be noted: A549 cells, 72 hrs with drug, CCK-8, OD 450 nm. On the procedure: as §1, §2
The test system of test [4] is Human multiple myeloma cell RPMI 8226. Kind of test: CCK-8 cell proliferation assay, RPMI 8226. The note with it: RPMI8226 cells, 72 hrs with drug, CCK-8, OD 450 nm. How it is done: as §1, §2
The test system of test [5] is Human colon cancer cell HCT-116. Kind of test: CCK-8 cell proliferation assay, HCT-116. The note with it: HCT116 cells, 72 hrs with drug, CCK-8, OD 450 nm. How it is done: as §1, §2
Test [6] deals with Human gastric cancer cell MKN45. Kind of test: CCK-8 cell proliferation assay, MKN45. The note with it: MKN-45 cells, 72 hrs with drug, CCK-8, OD 450 nm. On the procedure:
as §1, §2

In test [7] the test system is Human esophageal cancer cell TE-1. Kind of test: CCK-8 cell proliferation assay, TE-1. The note with it: TE-1 cells, 72 hrs with drug, CCK-8, OD 450 nm. How it is done:
as §1, §2

Regarding `N#CN=C(NCCCCCC1CCN(C(=O)c2cccs2)C1)Nc1cccnc1` (centres unmarked) [BSS-PC043, 2-cyano-1-(5-(1-(2-thienylformyl)pyrrolidine-3-yl)pentyl)-3-(3-pyridinyl)guanidine], the IC50 in test [1] worked out at 36 nM; in test [2] it was 83 nM; in test [3], 45 nM; in test [4], 29 nM; in test [5], 51 nM; in test [6], 69 nM. Moreover, in test [7], 92 nM corresponded to half-maximal inhibition (IC50).

Turning to `O=C(/C=C/c1cccnc1)NCCCCC1CCN(C(=O)c2ccccc2)CC1` [FK866, reference compound], the IC50 in test [1] was determined as 37 nM; in test [2], 99 nM; in test [3], 37 nM; in test [4], 20 nM; in test [5], 92 nM; in test [6] it was 39 nM. The same molecule came in with an IC50 in test [7] of 112 nM.

As to `N#CN=C(NCCCCCCC1CCN(C(=O)C2CCCS2)C1)Nc1ccncc1` (centres unmarked) [BSS-PC058, 2-cyano-1-(6-(1-(2-tetrahydrothienylformyl)pyrrolidine-3-yl)hexyl)-3-(4-pyridinyl)guanidine], the IC50 in test [1] turned out to be 52 nM; in test [2] it was 75 nM; in test [3] it was 42 nM; in test [4], 43 nM; in test [5], 82 nM; in test [6] it was 69 nM. Also, 71 nM corresponded to half-maximal inhibition in test [7] (IC50).

Regarding `N#CN=C(NCCCCCN1CCN(C(=O)C2CCCO2)CC1)Nc1ccncc1` (centres unmarked) [BSS-PC011], the IC50 was 39 nM in test [1]; 52 nM in test [2]; 40 nM in test [3]; 42 nM in test [4]; 49 nM in test [5]; 61 nM in test [6]. Besides, the IC50 in test [7] came to 47 nM.

Regarding `N#CN=C(NCCCCCN1CCN(C(=O)c2ccco2)CC1)Nc1ccnc(F)c1` [BSS-PC013], the IC50 in test [1] turned out to be 38 nM; in test [2] it was 93 nM; in test [3], 48 nM; in test [4] it was 28 nM; in test [5], 101 nM; in test [6] it was 72 nM. In test [7], inhibition was half-maximal at 57 nM (IC50).

As to `N#CN=C(NCCCCCCC1CCN(C(=O)c2ccc[nH]2)C1)Nc1ccncc1` (centres unmarked) [BSS-PC056, 2-cyano-1-(6-(1-(2-pyrrolylformyl)pyrrolidine-3-yl)hexyl)-3-(4-pyridinyl)guanidine], the IC50 in test [1] came out at 44 nM; in test [2], 39 nM; in test [3] it was 47 nM; in test [4], 33 nM; in test [5], 73 nM; in test [6] it was 39 nM. For the same molecule, the IC50 in test [7] was found to be 42 nM.

As to `N#CN=C(NCCCCCN1CCN(C(=O)c2ccc[nH]2)CC1)Nc1ccncc1` [BSS-PC008, 2-cyano-1-(5-(1-(2-pyrrolylformyl)piperazine-4-yl)pentyl)-3-(4-pyridinyl)guanidine], the IC50 in test [1] worked out at 51 nM; in test [2], 101 nM; in test [3] it was 55 nM; in test [4], 38 nM; in test [5], 89 nM; in test [6] it was 59 nM. In addition, in test [7], half-maximal inhibition (IC50) required 107 nM.

As for `N#CN=C(NCCCCCC1CCN(C(=O)c2ccccc2)C1)Nc1cccnc1` (centres unmarked) [BSS-PC044, 2-cyano-1-(5-((1-benzoyl)pyrrolidine-3-yl)pentyl)-3-(3-pyridinyl)guanidine], the IC50 in test [1] came out at 38 nM; in test [2], 42 nM; in test [3], 41 nM; in test [4] it was 20 nM; in test [5] it was 40 nM; in test [6], 53 nM. This molecule yielded an IC50 in test [7] of 34 nM.

Take `N#CN=C(NCCCCCCC1CCN(C(=O)c2ccco2)C1)Nc1cc(F)nc(F)c1` (centres unmarked) [BSS-PC076]: the IC50 was determined as 29 nM in test [1]; 42 nM in test [2]; 33 nM in test [3]; 26 nM in test [4]; 53 nM in test [5]; 45 nM in test [6]. In test [7], this molecule showed an IC50 of 46 nM.

Consider `N#CN=C(NCCCCCN1CCN(C(=O)c2ccco2)CC1)Nc1cccnc1` [BSS-PC026, 2-cyano-1-(5-((1-furoyl)piperazine-4-yl)pentyl)-3-(3-pyridinyl)guanidine], for which the IC50 is 31 nM in test [1]; 55 nM in test [2]; 32 nM in test [3]; 20 nM in test [4]; 73 nM in test [5]; 30 nM in test [6]. Moreover, the IC50 in test [7] was 72 nM.

As for `N#CN=C(NCCCCCCC1CCN(C(=O)c2ccco2)C1)Nc1cc(Cl)nc(Cl)c1` (centres unmarked) [BSS-PC080], the IC50 turned out to be 51 nM in test [1]; 83 nM in test [2]; 66 nM in test [3]; 42 nM in test [4]; 75 nM in test [5]; 64 nM in test [6]. This molecule registered an IC50 in test [7] of 62 nM.

Regarding `N#CN=C(NCCCCCCC1CCN(C(=O)c2cccs2)C1)Nc1cccnc1` (centres unmarked) [BSS-PC060, 2-cyano-1-(6-(1-(2-thienylformyl)pyrrolidine-3-yl)hexyl)-3-(3-pyridinyl)guanidine], the IC50 in test [1] amounted to 31 nM; in test [2], 101 nM; in test [3], 31 nM; in test [4], 38 nM; in test [5] it was 97 nM; in test [6] it was 78 nM. The molecule also came in with an IC50 in test [7] of 85 nM.

Regarding `N#CN=C(NCCCCCCC1CCN(C(=O)c2cc3ccccc3[nH]2)C1)Nc1ccncc1` (centres unmarked) [BSS-PC071, 2-cyano-1-(6-(1-(2-indolylformyl)pyrrolidine-3-yl)hexyl)-3-(4-pyridinyl)guanidine], the concentration for half-maximal inhibition (IC50) in test [1] turned out to be 61 nM; in test [2] it was 153 nM; in test [3], 75 nM; in test [4], 49 nM; in test [5], 72 nM; in test [6] it was 65 nM. Besides, in test [7], inhibition was half-maximal at 106 nM (IC50).

As for `N#CN=C(NCCCCCCC1CCN(C(=O)c2ccco2)C1)Nc1ccncc1` (centres unmarked) [BSS-PC057, 2-cyano-1-(6-(1-(furoyl)pyrrolidine-3-yl)hexyl)-3-(4-pyridinyl)guanidine], the IC50 in test [1] was found to be 37 nM; in test [2] it was 64 nM; in test [3], 53 nM; in test [4], 51 nM; in test [5], 69 nM; in test [6], 31 nM. The molecule further gave an IC50 in test [7] of 60 nM.

Consider `N#CN=C(NCCCCCN1CCN(C(=O)c2cc3ccccc3o2)CC1)Nc1ccncc1` [BSS-PC022, 2-cyano-1-(5-(1-(2-benzofurylformyl)piperazine-4-yl)pentyl)-3-(4-pyridinyl)guanidine], for which the IC50 in test [1] worked out at 59 nM; in test [2], 88 nM; in test [3], 70 nM; in test [4], 52 nM; in test [5], 81 nM; in test [6] it was 65 nM. The same molecule came in with an IC50 in test [7] of 83 nM.

On to `N#CN=C(NCCCCCC1CCN(C(=O)C2Cc3ccccc3O2)C1)Nc1ccncc1` (centres unmarked) [BSS-PC046, 2-cyano-1-(5-(1-(2-benzotetrahydrofurylfuryl)pyrrolidine-3-yl)pentyl)-3-(4-pyridinyl)guanidine], for which the IC50 in test [1] stood at 42 nM; in test [2], 85 nM; in test [3] it was 71 nM; in test [4], 45 nM; in test [5] it was 74 nM; in test [6], 61 nM. Also, the IC50 in test [7] came out at 83 nM.

As to `N#CN=C(NCCCCCC1CCN(C(=O)c2occc2F)C1)Nc1ccncc1` (centres unmarked) [BSS-PC048, 2-cyano-1-(5-(1-(3-fluoro-2-furylformyl)pyrrolidine-3-yl)pentyl)-3-(4-pyridinyl)guanidine], the IC50 in test [1] was 36 nM; in test [2], 47 nM; in test [3] it was 42 nM; in test [4], 33 nM; in test [5] it was 60 nM; in test [6] it was 34 nM. Also, the IC50 in test [7] came to 51 nM.

For the molecule `N#CN=C(NCCCCCN1CCN(C(=O)C2CCCS2)CC1)Nc1ccncc1` (centres unmarked) [BSS-PC009, 2-cyano-1-(5-(1-(2-tetrahydrothienylformyl)piperazine-4-yl)pentyl)-3-(4-pyridinyl)guanidine], the IC50 in test [1] is 58 nM; in test [2], 85 nM; in test [3], 71 nM; in test [4] it was 43 nM; in test [5] it was 92 nM; in test [6] it was 68 nM. The IC50 in test [7] turned out to be 81 nM.

For the molecule `N#CN=C(NCCCCCCC1CCN(C(=O)c2ccccc2)C1)Nc1cccnc1` (centres unmarked) [BSS-PC059, 2-cyano-1-(6-((1-benzoyl)pyrrolidine-3-yl)hexyl)-3-(3-pyridinyl)guanidine], the IC50 in test [1] was found to be 46 nM; in test [2] it was 92 nM; in test [3], 43 nM; in test [4] it was 35 nM; in test [5] it was 86 nM; in test [6] it was 47 nM. In test [7], this molecule showed an IC50 of 99 nM.

`N#CN=C(NCCCCCC1CCN(C(=O)c2cc3ccccc3o2)C1)Nc1ccncc1` (centres unmarked) [BSS-PC047, 2-cyano-1-(5-(1-(2-benzofurylformyl)pyrrolidine-3-yl)pentyl)-3-(4-pyridinyl)guanidine]: the IC50 in test [1] was found to be 50 nM; in test [2], 79 nM; in test [3], 66 nM; in test [4] it was 42 nM; in test [5], 63 nM; in test [6], 55 nM. Also, the IC50 in test [7] is 68 nM.
